From patent publication US12685735B2 (Foghorn Therapeutics Inc., priority 2020, dated 2026)

Key:
[1] = target: BRM (Homo sapiens, UniProt P51531); test: ATPase catalytic activity assay of BRM (ADP-Glo); assay type: biochemical; conditions: for IC50: read-out: BRM IC50 (μM)*
In short: (§1)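 Two room-temperature incubations follow the reaction: 40 min to eliminate unused ATP, then 60 min to turn ADP into ATP driving luciferase light output. Activity is read as luminescence proportional to ADP formed.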

[2] = target: BRG-1 (Homo sapiens, UniProt P51532); test: ATPase catalytic activity assay of BRG-1 (ADP-Glo); assay type: biochemical; conditions: ATPase catalytic activity, ADP-Glo; for IC50: read-out: BRG1 IC50 (μM)*; for Emax: read-out: BRG1 Max % Inhibition
BRG-1, sequence (P51532 whole entry): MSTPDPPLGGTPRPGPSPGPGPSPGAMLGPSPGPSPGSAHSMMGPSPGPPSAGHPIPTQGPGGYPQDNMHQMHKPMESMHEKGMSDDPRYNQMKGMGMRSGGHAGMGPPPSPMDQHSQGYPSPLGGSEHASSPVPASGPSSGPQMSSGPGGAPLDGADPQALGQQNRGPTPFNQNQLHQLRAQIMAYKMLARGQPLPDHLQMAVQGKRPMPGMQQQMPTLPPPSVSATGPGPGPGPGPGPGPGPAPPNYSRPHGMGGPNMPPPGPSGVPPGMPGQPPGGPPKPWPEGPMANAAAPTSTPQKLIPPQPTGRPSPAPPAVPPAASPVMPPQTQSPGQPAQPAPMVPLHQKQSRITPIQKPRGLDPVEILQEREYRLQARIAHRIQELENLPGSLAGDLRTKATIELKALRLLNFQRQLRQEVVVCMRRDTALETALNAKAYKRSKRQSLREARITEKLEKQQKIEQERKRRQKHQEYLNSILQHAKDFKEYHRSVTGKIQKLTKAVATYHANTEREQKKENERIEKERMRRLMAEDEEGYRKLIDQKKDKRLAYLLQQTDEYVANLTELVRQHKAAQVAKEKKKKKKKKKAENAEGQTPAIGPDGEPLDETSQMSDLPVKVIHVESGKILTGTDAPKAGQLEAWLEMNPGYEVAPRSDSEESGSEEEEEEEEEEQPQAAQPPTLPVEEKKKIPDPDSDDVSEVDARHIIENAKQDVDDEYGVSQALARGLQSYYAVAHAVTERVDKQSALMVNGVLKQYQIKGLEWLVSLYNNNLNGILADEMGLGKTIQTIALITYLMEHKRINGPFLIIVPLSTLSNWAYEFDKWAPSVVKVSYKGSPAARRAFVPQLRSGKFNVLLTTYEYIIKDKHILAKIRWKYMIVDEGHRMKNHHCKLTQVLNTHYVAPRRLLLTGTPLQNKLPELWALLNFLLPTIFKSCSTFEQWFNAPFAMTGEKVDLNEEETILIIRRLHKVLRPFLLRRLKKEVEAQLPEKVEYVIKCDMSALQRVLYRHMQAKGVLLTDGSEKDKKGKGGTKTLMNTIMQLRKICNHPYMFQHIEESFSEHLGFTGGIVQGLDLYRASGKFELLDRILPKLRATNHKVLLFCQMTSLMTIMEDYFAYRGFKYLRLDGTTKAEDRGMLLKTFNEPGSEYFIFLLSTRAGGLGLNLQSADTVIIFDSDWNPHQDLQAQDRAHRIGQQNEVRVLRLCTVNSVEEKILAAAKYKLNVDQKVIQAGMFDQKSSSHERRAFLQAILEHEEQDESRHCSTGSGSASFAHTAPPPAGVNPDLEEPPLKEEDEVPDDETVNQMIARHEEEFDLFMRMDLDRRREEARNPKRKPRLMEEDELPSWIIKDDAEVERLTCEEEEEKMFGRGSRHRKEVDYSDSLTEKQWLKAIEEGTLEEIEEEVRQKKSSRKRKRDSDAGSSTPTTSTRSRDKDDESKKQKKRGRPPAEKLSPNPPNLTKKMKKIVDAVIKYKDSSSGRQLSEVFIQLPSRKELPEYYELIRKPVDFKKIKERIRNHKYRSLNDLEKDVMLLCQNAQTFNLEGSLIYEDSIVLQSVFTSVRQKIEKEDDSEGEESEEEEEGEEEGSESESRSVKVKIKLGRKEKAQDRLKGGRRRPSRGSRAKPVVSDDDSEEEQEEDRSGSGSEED
In short: as §1

BRM, sequence (P51531 whole entry): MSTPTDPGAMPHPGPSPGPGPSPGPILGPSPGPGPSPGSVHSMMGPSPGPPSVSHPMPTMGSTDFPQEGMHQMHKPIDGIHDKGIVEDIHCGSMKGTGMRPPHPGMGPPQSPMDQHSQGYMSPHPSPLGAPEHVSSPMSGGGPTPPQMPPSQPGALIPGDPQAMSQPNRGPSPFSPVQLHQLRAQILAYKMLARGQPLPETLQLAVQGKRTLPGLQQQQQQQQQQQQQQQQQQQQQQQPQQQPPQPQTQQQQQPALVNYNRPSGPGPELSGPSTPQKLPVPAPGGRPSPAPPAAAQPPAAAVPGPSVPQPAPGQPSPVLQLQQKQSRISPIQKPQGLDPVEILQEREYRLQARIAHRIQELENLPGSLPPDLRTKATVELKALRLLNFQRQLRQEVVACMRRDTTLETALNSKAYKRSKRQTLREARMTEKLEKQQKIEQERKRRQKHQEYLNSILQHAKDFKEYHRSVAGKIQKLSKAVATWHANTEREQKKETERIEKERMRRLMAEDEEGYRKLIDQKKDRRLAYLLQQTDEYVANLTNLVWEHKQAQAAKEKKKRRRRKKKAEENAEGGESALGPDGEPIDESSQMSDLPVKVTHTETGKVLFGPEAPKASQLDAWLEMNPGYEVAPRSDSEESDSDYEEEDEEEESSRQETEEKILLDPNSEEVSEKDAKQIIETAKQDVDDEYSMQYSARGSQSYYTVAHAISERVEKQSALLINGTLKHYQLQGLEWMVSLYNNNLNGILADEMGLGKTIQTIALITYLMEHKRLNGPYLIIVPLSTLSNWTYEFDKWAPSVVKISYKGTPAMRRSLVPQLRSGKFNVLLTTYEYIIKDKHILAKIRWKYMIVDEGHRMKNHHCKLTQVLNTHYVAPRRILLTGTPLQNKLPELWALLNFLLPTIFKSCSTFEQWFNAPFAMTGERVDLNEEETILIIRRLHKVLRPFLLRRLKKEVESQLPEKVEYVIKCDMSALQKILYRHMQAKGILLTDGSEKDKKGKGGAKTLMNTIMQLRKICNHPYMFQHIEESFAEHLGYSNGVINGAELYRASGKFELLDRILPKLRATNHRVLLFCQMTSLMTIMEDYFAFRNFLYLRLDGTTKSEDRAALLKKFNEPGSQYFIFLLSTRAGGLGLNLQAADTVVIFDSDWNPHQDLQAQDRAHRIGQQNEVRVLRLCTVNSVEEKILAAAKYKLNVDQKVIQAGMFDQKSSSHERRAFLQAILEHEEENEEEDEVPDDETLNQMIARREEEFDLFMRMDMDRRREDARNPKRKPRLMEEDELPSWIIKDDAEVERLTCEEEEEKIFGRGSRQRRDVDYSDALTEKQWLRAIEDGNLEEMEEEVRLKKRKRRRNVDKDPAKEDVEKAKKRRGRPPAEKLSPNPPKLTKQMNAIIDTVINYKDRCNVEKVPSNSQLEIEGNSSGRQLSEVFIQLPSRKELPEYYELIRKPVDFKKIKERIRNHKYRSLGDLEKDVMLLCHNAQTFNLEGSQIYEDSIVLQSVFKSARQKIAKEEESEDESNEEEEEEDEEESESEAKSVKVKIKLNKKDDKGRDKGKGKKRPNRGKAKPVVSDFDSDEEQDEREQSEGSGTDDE

BRM Max % Inhibition [1] [%]	IC50 [1] [µM]	IC50 [2] [µM]	Emax [2] [%]	SMILES
>90	0.1 to 1	> 5	> 90	C[C@@H]1CN(c2cccc(-c3csc(NC(=O)CNC(=O)c4cccc([C@]5(C(F)F)CCCO5)c4)n3)c2)C[C@H](C)O1 [Compound 291, 3-((S)-2-(difluoromethyl)tetrahydrofuran-2-yl)-N-(2-((4-(3-((cis)-2,6-dimethylmorpholino)phenyl)thiazol-2-yl)amino)-2-oxoethyl)benzamide]
>95	< 0.1	0.1 to 1	> 95	C[C@@]1(C#N)COCc2ccc(C(=O)NCC(=O)Nc3nc(-c4cccc([C@@]56CCOC[C@@H]5C6)n4)cs3)cc21 [Compound 292, (R)-N-(2-((4-(6-((1R,6S)-3-oxabicyclo[4.1.0]heptan-6-yl)pyridin-2-yl)thiazol-2-yl)amino)-2-oxoethyl)-4-cyano-4-methylisochromane-6-carboxamide]
>95	< 0.1	0.1 to 1	> 95	C[C@@]1(C#N)COCc2ccc(C(=O)NCC(=O)Nc3nc(-c4cccc([C@]56CCOC[C@H]5C6)n4)cs3)cc21 [Compound 293, (R)-N-(2-((4-(6-((1S,6R)-3-oxabicyclo[4.1.0]heptan-6-yl)pyridin-2-yl)thiazol-2-yl)amino)-2-oxoethyl)-4-cyano-4-methylisochromane-6-carboxamide]
>95	< 0.1	0.1 to 1	> 95	C[C@@]1(C#N)COCc2ccc(C(=O)NCC(=O)Nc3nc(-c4cccc([C@@]56CCOC[C@@H]5C6)c4)cs3)cc21 [Compound 294, (R)-N-(2-((4-(3-((1R,6S)-3-oxabicyclo[4.1.0]heptan-6-yl)phenyl)thiazol-2-yl)amino)-2-oxoethyl)-4-cyano-4-methylisochromane-6-carboxamide]
>95	< 0.1	0.1 to 1	> 95	C[C@@]1(C#N)COCc2ccc(C(=O)NCC(=O)Nc3nc(-c4cccc([C@]56CCOC[C@H]5C6)c4)cs3)cc21 [Compound 295, (R)-N-(2-((4-(3-((1S,6R)-3-oxabicyclo[4.1.0]heptan-6-yl)phenyl)thiazol-2-yl)amino)-2-oxoethyl)-4-cyano-4-methylisochromane-6-carboxamide]
>95	< 0.1	< 0.1	> 95	C[C@@H]1CN(c2cccc(-c3csc(NC(=O)CNC(=O)c4ccc5c(c4)CCCOC5)n3)n2)C[C@H](C)O1 [Compound 296, N-(2-((4-(6-((cis)-2,6-dimethylmorpholino)pyridin-2-yl)thiazol-2-yl)amino)-2-oxoethyl)-1,3,4,5-tetrahydrobenzo[c]oxepine-7-carboxamide]
>95	0.1 to 1	1 to 5	> 85	C[C@@]1(F)COCc2ccc(C(=O)NCC(=O)Nc3nc(C4CCOCC4)cs3)cc21 [Compound 297, (S)-4-fluoro-4-methyl-N-(2-oxo-2-((4-(tetrahydro-2H-pyran-4-yl)thiazol-2-yl)amino)ethyl)isochromane-6-carboxamide]
>95	< 0.1	0.1 to 1	> 95	C[C@@H]1CN(c2cccc(-c3csc(NC(=O)CNC(=O)c4ccc5c(c4)C4(COC5)COC4)n3)n2)C[C@H](C)O1 [Compound 300, N-(2-((4-(6-((cis)-2,6-dimethylmorpholino)pyridin-2-yl)thiazol-2-yl)amino)-2-oxoethyl)spiro[isochromane-4,3′-oxetane]-6-carboxamide]
>95	< 0.1	0.1 to 1	> 95	C[C@@]1(F)COCc2ccc(C(=O)NCC(=O)Nc3nc(-c4ccccc4)cs3)cc21 [Compound 303, (S)-4-fluoro-4-methyl-N-(2-oxo-2-((4-phenylthiazol-2-yl)amino)ethyl)isochromane-6-carboxamide]
>95	0.1 to 1	1 to 5	> 95	C[C@@H]1CN(c2cccc(-c3csc(NC(=O)CNC(=O)c4cccc(C5(F)COCC5O)c4)n3)n2)C[C@H](C)O1 (stereo partly drawn) [Compound 304, N-(2-((4-(6-((cis)-2,6-dimethylmorpholino)pyridin-2-yl)thiazol-2-yl)amino)-2-oxoethyl)-3-(3-fluoro-4-hydroxytetrahydrofuran-3-yl)benzamide]
>95	< 0.1	0.1 to 1	> 95	C[C@@]1(C#N)COCc2ccc(C(=O)NCC(=O)Nc3nc(-c4cccc(C56CCOCC5C6)c4)cs3)cc21 (stereo partly drawn) [Compound 305, (R)-N-(2-((4-(3-(3-oxabicyclo[4.1.0]heptan-6-yl)phenyl)thiazol-2-yl)amino)-2-oxoethyl)-4-cyano-4-methylisochromane-6-carboxamide]
>95	0.1 to 1	1 to 5	> 95	C[C@@H]1CN(c2cccc(-c3csc(NC(=O)CNC(=O)c4cccc(C5(C(F)F)CCCO5)c4)n3)c2)C[C@H](C)O1 (stereo partly drawn) [Compound 306, 3-(2-(difluoromethyl)tetrahydrofuran-2-yl)-N-(2-((4-(3-((cis)-2,6-dimethylmorpholino)phenyl)thiazol-2-yl)amino)-2-oxoethyl)benzamide]
>95	< 0.1	0.1 to 1	> 95	COc1cccc(-c2csc(NC(=O)[C@H](C)NC(=O)c3ccc4c(c3)[C@](C)(F)COC4)n2)c1 [Compound 309, (S)-4-fluoro-N-((S)-1-((4-(3-methoxyphenyl)thiazol-2-yl)amino)-1-oxopropan-2-yl)-4-methylisochromane-6-carboxamide]
>95	< 0.1	0.1 to 1	> 95	C[C@@H]1CN(c2cccc(-c3csc(NC(=O)CNC(=O)c4ccc5c(c4)C(C)(C#N)CNC5)n3)c2)C[C@H](C)O1 (stereo partly drawn) [Compound 310, 4-cyano-N-(2-((4-(3-((cis)-2,6-dimethylmorpholino)phenyl)thiazol-2-yl)amino)-2-oxoethyl)-4-methyl-1,2,3,4-tetrahydroisoquinoline-6-carboxamide]
>95	0.1 to 1	1 to 5	> 95	COc1cccc(-c2csc(NC(=O)CNC(=O)c3ccc4c(c3)C(C)(C#N)CNC4)n2)c1 (centres unmarked) [Compound 311, 4-cyano-N-(2-((4-(3-methoxyphenyl)thiazol-2-yl)amino)-2-oxoethyl)-4-methyl-1,2,3,4-tetrahydroisoquinoline-6-carboxamide]
>95	< 0.1	0.1 to 1	> 95	COc1cccc(-c2csc(NC(=O)CNC(=O)c3ccc4c(c3)[C@](C)(F)COC4)n2)c1 [Compound 312, (S)-4-fluoro-N-(2-((4-(3-methoxyphenyl)thiazol-2-yl)amino)-2-oxoethyl)-4-methylisochromane-6-carboxamide]
>90	0.1 to 1	1 to 5	> 90	COc1cccc(-c2csc(NC(=O)CNC(=O)c3ccc4c(c3)C(C)(O)COC4)n2)c1 (centres unmarked) [Compound 313, 4-hydroxy-N-(2-((4-(3-methoxyphenyl)thiazol-2-yl)amino)-2-oxoethyl)-4-methylisochromane-6-carboxamide]
>90	< 0.1	0.1 to 1	> 90	C[C@@]1(F)COCc2ccc(C(=O)NCC(=O)Nc3nc(-c4cc(F)cc(C#N)c4)cs3)cc21 [Compound 314, (S)-N-(2-((4-(3-cyano-5-fluorophenyl)thiazol-2-yl)amino)-2-oxoethyl)-4-fluoro-4-methylisochromane-6-carboxamide]
>95	< 0.1	0.1 to 1	> 95	C[C@@]1(F)COCc2ccc(C(=O)NCC(=O)Nc3nc(-c4cccc(C#N)c4)cs3)cc21 [Compound 315, (S)-N-(2-((4-(3-cyanophenyl)thiazol-2-yl)amino)-2-oxoethyl)-4-fluoro-4-methylisochromane-6-carboxamide]
>95	< 0.1	< 0.1	> 95	C[C@@]1(C#N)COCc2ccc(C(=O)NCC(=O)Nc3nc(-c4cc(F)cc(C5CCO5)c4)cs3)cc21 (stereo partly drawn) [Compound 316, (R)-4-cyano-N-(2-((4-(3-fluoro-5-(oxetan-2-yl)phenyl)thiazol-2-yl)amino)-2-oxoethyl)-4-methylisochromane-6-carboxamide]
>95	< 0.1	1 to 5	> 95	C[C@@H]1CN(c2cccc(-c3csc(NC(=O)CNC(=O)c4cccc([C@]5(F)C[C@@](C)(O)C5)c4)n3)c2)C[C@H](C)O1 [Compound 317, N-(2-((4-(3-((cis)-2,6-dimethylmorpholino)phenyl)thiazol-2-yl)amino)-2-oxoethyl)-3-((1s,3s)-1-fluoro-3-hydroxy-3-methylcyclobutyl)benzamide]
>90	0.1 to 1	> 5	> 90	C[C@@H]1CN(c2cccc(-c3csc(NC(=O)CNC(=O)c4cccc(C5(F)CC6(COC6)C5)c4)n3)n2)C[C@H](C)O1 [Compound 318, N-(2-((4-(6-((cis)-2,6-dimethylmorpholino)pyridin-2-yl)thiazol-2-yl)amino)-2-oxoethyl)-3-(6-fluoro-2-oxaspiro[3.3]heptan-6-yl)benzamide]
>95	< 0.1	0.1 to 1	> 95	C[C@@H]1CN(c2cccc(-c3csc(NC(=O)CNC(=O)c4ccc5c(c4)[C@@H](C)COC5)n3)n2)C[C@H](C)O1 [Compound 320, (R)-N-(2-((4-(6-((cis)-2,6-dimethylmorpholino)pyridin-2-yl)thiazol-2-yl)amino)-2-oxoethyl)-4-methylisochromane-6-carboxamide]
